{
  "source": "paper PMC8580319",
  "about": "“Dual activities of ACC synthase: Novel clues regarding the molecular evolution of ACS genes” (Science Advances, 2021)",
  "molecules": {"B1": {"name": "Arabidopsis ACS7 (AtACS7), 1-aminocyclopropane-1-carboxylate (ACC) synthase 7 (enzyme)", "chain": "MGLPLMMERSSNNNNVELSRVAVSDTHGEDSPYFAGWKAYDENPYDESHNPSGVIQMGLAENQVSFDLLETYLEKKNPEGSMWGSKGAPGFRENALFQDYHGLKTFRQAMASFMEQIRGGKARFDPDRIVLTAGATAANELLTFILADPNDALLVPTPYYPGFDRDLRWRTGVKIVPIHCDSSNHFQITPEALESAYQTARDANIRVRGVLITNPSNPLGATVQKKVLEDLLDFCVRKNIHLVSDEIYSGSVFHASEFTSVAEIVENIDDVSVKERVHIVYSLSKDLGLPGFRVGTIYSYNDNVVRTARRMSSFTLVSSQTQHMLASMLSDEEFTEKYIRINRERLRRRYDTIVEGLKKAGIECLKGNAGLFCWMNLGFLLEKKTKDGELQLWDVILKELNLNISPGSSCHCSEVGWFRVCFANMSENTLEIALKRIHEFMDRRRRF", "notes": "ACC synthase 7 (AtACS7) of Arabidopsis thaliana, TAIR locus AT4G26200; vector pET-28a or pGEX-6p-1 per the methods, HisTrap purification points to the His form; also called wild-type AtACS7; source: E. coli BL21 [Rosetta 2 (DE3) plysS], purified (HisTrap, Hitrap Q HP ion exchange, Superdex 200 gel filtration)"}},
  "key": {"AtACS7 [1]": {"target": "T1, AtACS7 (Arabidopsis thaliana, UniProt Q9STR4)", "T1 construct": "gene ACS7; recombinant from E. coli Rosetta 2 (DE3) pLysS; pET-28a (His) or pGEX-6p-1 (GST); His-tagged protein for crystals; dimer", "T1 sequence (Q9STR4 1-447)": "B1 chain", "assay": "inhibition of Cβ-S lyase activity, pyruvate assay", "assay_type": "biochemical", "settings": "L-cystine 4 mM, 100 μM PLP, 30°C; forms adduct with PLP"}, "AtACS7 [2]": {"target": "T1, AtACS7", "assay": "Cβ-S lyase activity with and without PLP, pyruvate assay", "assay_type": "biochemical", "settings": "L-cystine 4 mM, 30°C"}, "AtACS7 [3]": {"target": "T2, AtACS7 (Arabidopsis thaliana, UniProt Q9STR4, D245N)", "T2 construct": "gene ACS7; recombinant from E. coli Rosetta 2 (DE3) pLysS; pET-28a (His) or pGEX-6p-1 (GST); His-tagged protein for crystals; dimer", "T2 sequence (Q9STR4 1-447 D245N)": "B1 chain with D245N", "assay": "ACC formation, converted to ethylene, GC", "assay_type": "biochemical", "settings": "ACS activity, reduced; 0.4 mM SAM, pH 8.5, 30°C, 10 μM PLP"}, "[4]": {"target": "AtACS7-R6 (AtACS7 in which BOX2 is replaced by PpACL1-BOX2) (Arabidopsis | Physcomitrella patens)", "assay": "crystal structure; AtACS7-R6 with PPG (1 mM PLP and AVG added), hanging drop, 0.1 M Hepes pH 7.6, 6% PEG-10000; 2.95 Å; one dimer in the asymmetric unit"}, "[5]": {"target": "the molecule itself", "assay": "crystal structure; AtACS7 with PPG (1 mM PLP and AVG added), hanging drop, 0.1 M tris pH 8.6, 23% PEG-3350; 2.20 Å; four complexes as two dimers in the asymmetric unit"}},
  "note": "Changes are numbered by the printed parent chain.",
  "data": [
    {"molecule": "NCCO/C=C/[C@H](N)C(=O)O", "note": "[AVG]", "values": [
      {"measurement": "inhibition at 5 μM", "setting": "AtACS7 [1]", "result": "could be totally suppressed by adding AVG to the reaction mixture"}
    ]},
    {"molecule": "Cc1ncc(COP(=O)(O)O)c(C=O)c1O", "note": "[PLP]", "values": [
      {"measurement": "Cβ-S lyase activity with and without PLP, pyruvate assay", "setting": "AtACS7 [2]", "result": "The Cβ-S lyase activity of AtACS7 was also PLP dependent"}
    ]},
    {"molecule": "C[S+](CC[C@H](N)C(=O)O)C[C@H]1O[C@@H](n2cnc3c(N)ncnc32)[C@H](O)[C@@H]1O", "note": "(some centres unmarked) [SAM]", "values": [
      {"measurement": "ACC formation, converted to ethylene, GC", "setting": "AtACS7 [3]", "result": "mutant still retained considerable, albeit reduced, ACS activity"}
    ]},
    {"molecule": "AtACS7-R6 (AtACS7 in which BOX2 is replaced by PpACL1-BOX2) (enzyme)", "values": [
      {"measurement": "stoichiometry N", "setting": "[4]", "result": 2}
    ]},
    {"molecule": "B1", "values": [
      {"measurement": "stoichiometry N", "setting": "[5]", "result": 2}
    ]}
  ]
}
